Reference: patent US9936701B2, “Herbicidal compounds” (Syngenta Participations AG, priority 2013, dated 2018)

Key:
[1] = tested on: a variety of test species; experiment: Pre-emergence herbicidal activity (glasshouse, sprayed one day after sowing, evaluated after 13 days); assay type: in vivo; parameters: key: 5=total damage to plant; 0=no damage to plant; conditions: application pre-emergence, rate 1000 g/Ha, scale 0-5
Procedure, shortened: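 Visual 0–5 injury score (5 = total damage) taken 13 days after spraying. Treatment applied one day after sowing, before emergence; glasshouse at 24/16 °C day/night, 14 h photoperiod, 65% humidity.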

[2] = tested on: a variety of test species; experiment: Post-emergence herbicidal activity (glasshouse, sprayed after 8 days cultivation, evaluated after 13 days); assay type: in vivo; parameters: key: 5=total damage to plant; 0=no damage to plant; conditions: rate 1000 g/Ha, scale 0-5
Procedure, shortened: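 Pot-grown seedlings sprayed 8 days after sowing with active ingredient in acetone/water (50:50) plus 0.5% Tween 20. Glasshouse at 24/16 °C day/night, 14 h light, 65% humidity, watered twice daily. Damage scored after 13 days on a 0–5 scale (5 = total damage, 0 = none).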

Structure (SMILES)	melting point	Pre-emergence herbicidal damage score, ABUTH [1]	Pre-emergence herbicidal damage score, ALOMY [1]	Pre-emergence herbicidal damage score, AMARE [1]	Pre-emergence herbicidal damage score, ECHCG [1]	Pre-emergence herbicidal damage score, SETFA [1]	Pre-emergence herbicidal damage score, ZEAMX [1]	ABUTH (Abutilon theophrasti) damage score, application post-emergence [2]	ALOMY (Alopecurus myosuroides) damage score, application post-emergence [2]	AMARE (Amaranthus retroflexus) damage score, application post-emergence [2]	ECHCG (Echinochloa crus-galli) damage score, application post-emergence [2]	SETFA (Setaria faberi) damage score, application post-emergence [2]	ZEAMX (Zea mays) damage score, application post-emergence [2]
CC1=C(Cl)C(=O)N(c2noc(C(C)(C)C)c2Cl)C1O (stereo not shown) [A24]	143 to 145 °C	5	4	4	5	4	2	5	5	5	5	5	4
CC1=C(Cl)C(=O)N(c2cc(C3CCCCC3)on2)C1O (stereo not shown) [A25]	141 to 143 °C	3	2	5	2	0	0	5	3	4	4	5	1
CC1=C(Cl)C(=O)N(c2cc(C3(C)CC3)on2)C1O (stereo not shown) [A26]	177 to 178 °C	5	4	5	5	5	3	5	4	5	5	5	5
C=CCC(C)(C)c1cc(N2C(=O)C(Cl)=C(C)C2O)no1 (stereo not shown) [A28]	107 to 109 °C	5	4	5	5	4	2	5	5	5	5	5	4
CCC(C)(C)c1cc(N2C(=O)C(Cl)=C(C)C2O)no1 (stereo not shown) [A29]	103 to 105 °C	5	3	5	5	4	1	5	4	5	5	4	3
CC1=C(Cl)C(=O)N(c2cc(C(C)c3ccccc3)on2)C1O (stereo not shown) [A30]	118 to 120 °C	2	2	4	1	1	1	5	3	5	5	4	2

Second part, led by results:

melting point	Structure (SMILES)	Pre-emergence herbicidal damage score, ABUTH [1]	Pre-emergence herbicidal damage score, ALOMY [1]	Pre-emergence herbicidal damage score, AMARE [1]	Pre-emergence herbicidal damage score, ECHCG [1]	Pre-emergence herbicidal damage score, SETFA [1]	Pre-emergence herbicidal damage score, ZEAMX [1]	ABUTH (Abutilon theophrasti) damage score, application post-emergence [2]	ALOMY (Alopecurus myosuroides) damage score, application post-emergence [2]	AMARE (Amaranthus retroflexus) damage score, application post-emergence [2]	ECHCG (Echinochloa crus-galli) damage score, application post-emergence [2]	SETFA (Setaria faberi) damage score, application post-emergence [2]	ZEAMX (Zea mays) damage score, application post-emergence [2]
174 to 176 °C	CC1=C(Cl)C(=O)N(c2noc(C(C)(C)C)c2C#N)C1O (stereo not shown) [A31, 5-tert-butyl-3-(4-chloro-2-hydroxy-3-methyl-5-oxo-2H-pyrrol-1-yl)isoxazole-4-carbonitrile]	5	3	5	5	5	3	5	5	5	5	5	4
66 to 68 °C	C=CCOCC(C)(C)c1cc(N2C(=O)C(Cl)=C(C)C2O)no1 (stereo not shown) [A33]	3	2	5	4	3	3	5	4	5	5	4	5
99 to 101 °C	CCOCC(C)(C)c1cc(N2C(=O)C(Cl)=C(C)C2O)no1 (stereo not shown) [A34]	5	3	5	5	4	2	5	4	5	5	4	5
72 to 74 °C	CC(C)=CCCc1cc(N2C(=O)C(Cl)=C(C)C2O)no1 (stereo not shown) [A35]	1	1	3	0	0	0	4	1	5	2	0	1
110 to 112 °C	CCOC(C)(C)CCCc1cc(N2C(=O)C(Cl)=C(C)C2O)no1 (stereo not shown) [A36]	5	3	5	4	1	1	5	4	5	5	2	1
96 to 98 °C	CCCC(C)(C)c1cc(N2C(=O)C(Cl)=C(C)C2O)no1 (stereo not shown) [A37]	5	4	5	5	4	1	5	5	5	5	5	3
75 to 77 °C	CCCCC(C)(C)c1cc(N2C(=O)C(Cl)=C(C)C2O)no1 (stereo not shown) [A38]	1	3	5	5	2	1	5	5	5	5	5	2
